What was measured:
[1] = target: Glutaminyl-peptide cyclotransferase-like protein (Homo sapiens, UniProt Q9NXS2); test: QPCTL Enzymatic Activity Assay
Description: QPCTL activity was measured in a coupled-enzyme assay using the QPCTL substrate, glutamine-7-amido-4-methylcoumarin (H-Gln-AMC, Bachem), which is converted to pyroglutamyl-AMC by QPCTL. Pyroglutamyl-AMC is then converted to the fluorescent molecule, AMC, by incubation with the human enzyme pyroglutamyl peptidase-1. […] Final concentrations of DMSO and test compounds were 2% and 30-100 μM, respectively. Following the incubation, H-Gln-AMC substrate was diluted in assay buffer and added to each well for a final concentration of 10 μM. The reaction was incubated for 60 min at 37° C., before stopping it by boiling at 100° C. for 5 minutes and cooling the plate at 4° C. for 3 minutes. […] Following incubation, the fluorescence was measured with a plate reader using excitation at 380 nm and emission at 460 nm.

[2] = target: Glutaminyl-peptide cyclotransferase (Homo sapiens, UniProt Q16769); test: QPCT Enzymatic Activity Assay
Description: QPCT activity was measured in a coupled-enzyme assay using the QPCT substrate, glutamine-7-amido-4-methylcoumarin (H-Gln-AMC, Bachem), which is converted to pyroglutamyl-AMC by QPCT. Pyroglutamyl-AMC is then converted to the fluorescent molecule, AMC, by incubation with the human enzyme pyroglutamyl peptidase-1 (PGPEP-1). […] Following the incubation, H-Gln-AMC substrate was diluted in assay buffer and added to each well for a final concentration of 10 μM. The reaction was incubated for 60 min at 37° C., before stopping it by boiling at 100° C. for 5 minutes and cooling the plate at 4° C. for 3 minutes. […] Following incubation, the fluorescence was measured with a plate reader using excitation at 380 nm and emission at 460 nm.

Glutaminyl-peptide cyclotransferase, sequence (Q16769 whole entry): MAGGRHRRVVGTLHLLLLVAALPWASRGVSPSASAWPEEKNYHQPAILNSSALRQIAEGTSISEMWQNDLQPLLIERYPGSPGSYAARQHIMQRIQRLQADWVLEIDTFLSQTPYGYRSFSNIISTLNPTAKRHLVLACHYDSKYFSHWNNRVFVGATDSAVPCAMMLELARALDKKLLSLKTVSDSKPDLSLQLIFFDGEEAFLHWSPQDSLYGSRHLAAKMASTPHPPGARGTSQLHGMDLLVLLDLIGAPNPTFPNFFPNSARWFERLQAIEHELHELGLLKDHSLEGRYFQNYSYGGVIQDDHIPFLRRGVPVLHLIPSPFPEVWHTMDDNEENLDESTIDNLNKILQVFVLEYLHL
Glutaminyl-peptide cyclotransferase-like protein, sequence (Q9NXS2 whole entry): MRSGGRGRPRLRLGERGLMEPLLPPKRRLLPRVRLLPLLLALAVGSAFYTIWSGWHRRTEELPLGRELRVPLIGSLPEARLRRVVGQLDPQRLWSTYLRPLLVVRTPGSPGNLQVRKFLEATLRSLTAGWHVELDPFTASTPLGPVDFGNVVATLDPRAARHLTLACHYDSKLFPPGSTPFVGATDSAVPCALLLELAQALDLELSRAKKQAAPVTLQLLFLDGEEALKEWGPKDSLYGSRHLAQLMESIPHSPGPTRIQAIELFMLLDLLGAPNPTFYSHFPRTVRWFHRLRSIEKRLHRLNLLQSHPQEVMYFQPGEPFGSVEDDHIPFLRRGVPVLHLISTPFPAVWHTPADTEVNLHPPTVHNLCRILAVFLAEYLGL

- IC50 [1]: < 100 nM
- IC50 [2]: < 100 nM
Compound: Cn1cncc1C1CCN(c2c(C#N)ccnc2-c2ccc(F)nc2)CC1 [US20240101544, Example 134]

— BindingDB's records for patent US20240101544 (2024)
